In the C3SDB collision cross section collection:

Columns and labels:
[1] = instrument: TW, calibrated with phosphatidylcholines (ESI+) and phosphatidylethanolamines (ESI-), doubly charged cardiolipins calibrated with poly-DL-…
[2] = instrument: DT, stepped-field
[3] = instrument: DT, single field
[4] = [M+H]+; instrument: TW; calibrated with phosphatidylcholines (ESI+) and phosphatidylethanolamines (ESI-)
[5] = instrument: DT, single field, calibrated with Agilent tune mix (Agilent)

SMILES: CCCCCC/C=C\CCCCCCCC(=O)OC[C@H](COP(=O)(O)OCCNC(=O)CCCCCCCCCCCCCCC)OC(=O)CCCCCCCCCCCCCCC [AcylPE(48:1)]
- collision cross section (N2) ([1]; [M+Na]+): 325 Å²
- collision cross section (N2) ([1]; [M-H]-): 316.85 Å²

SMILES: CCCCCCCCCCCCCCCC(=O)NCCOP(=O)(O)OC[C@@H](COC(=O)CCCCCCCCCCCCCCC)OC(=O)CCCCCCCC1CC1CCCCCC (stereo not given in full) [AcylPE(49:1)]
- collision cross section (N2) ([1]; [M+Na]+): 328.3 Å²
- collision cross section (N2) ([1]; [M-H]-): 320.39 Å²

SMILES: CCCCCC/C=C\CCCCCCCC(=O)OC[C@H](COP(=O)(O)OC[C@@H](O)COC(=O)CCCCCCCCCCCCCCC)OC(=O)CCCCCCCCCCCCCCC [AcylPG(48:1)]
- collision cross section (N2) ([1]; [M+Na]+): 327.7 Å²
- collision cross section (N2) ([1]; [M-H]-): 316.96 Å²

SMILES: CCCCCCCCCCCCCCCC(=O)OC[C@H](O)COP(=O)(O)OC[C@@H](COC(=O)CCCCCCCCCCCCCCC)OC(=O)CCCCCCCC1CC1CCCCCC (stereo not given in full) [AcylPG(49:1)]
- collision cross section (N2) ([1]; [M+Na]+): 332.3 Å²
- collision cross section (N2) ([1]; [M-H]-): 320.54 Å²

SMILES: CCCCCC/C=C\CCCCCCCC(=O)OCC(COP(=O)(O)OCC(O)COP(=O)(O)OCC(COC(=O)CCCCCCCCCCCCCC)OC(=O)CCCCCCC/C=C\CCCCCC)OC(=O)CCCCCCC/C=C\CCCCCC (stereo not given) [CL(63:3)]
- collision cross section (N2) ([1]; [M-2H]2-): 394.68 Å²

SMILES: CCCCCC/C=C\CCCCCCCC(=O)OC(COC(=O)CCCCCCCC1CC1CCCCCC)COP(=O)(O)OCC(O)COP(=O)(O)OCC(COC(=O)CCCCCCCCCCCCCCC)OC(=O)CCCCCCC/C=C\CCCCCCCC (stereo not given) [CL(67:3)]
- collision cross section (N2) ([1]; [M+2K]2+): 428.6 Å²
- collision cross section (N2) ([1]; [M-2H]2-): 404.47 Å²

SMILES: CCCCCC/C=C\CCCCCCCC(=O)OCC(COP(=O)(O)OCC(O)COP(=O)(O)OCC(COC(=O)CCCCCCCC1CC1CCCCCC)OC(=O)CCCCCCC/C=C\CCCCCC)OC(=O)CCCCCCC/C=C\CCCCCCCC (stereo not given) [CL(67:4)]
- collision cross section (N2) ([1]; [M-2H]2-): 404.19 Å²

SMILES: CCCCCC/C=C\CCCCCCCC(=O)OC(COC(=O)CCCCCCCC1CC1CCCCCCCC)COP(=O)(O)OCC(O)COP(=O)(O)OCC(COC(=O)CCCCCCCCCCCCCCC)OC(=O)CCCCCCC/C=C\CCCCCCCC (stereo not given) [CL(69:3)]
- collision cross section (N2) ([1]; [M-2H]2-): 408.91 Å²

SMILES: CCCCCCCCCCCCCCC(=O)O[C@H](CO)COP(=O)([O-])OCC[NH3+] [LPE(0:0/15:0)]
- collision cross section (N2) ([1]; [M+H]+): 212.69 Å²
- collision cross section (N2) ([1]; [M+Na]+): 216.84 Å²
- collision cross section (N2) ([1]; [M-H]-): 202.25 Å²

SMILES: CCCCCCCC/C=C/CCCCCCCC(=O)O[C@H](CO)COP(=O)([O-])OCC[NH3+] [LPE(0:0/18:1)]
- collision cross section (N2) ([1]; [M+H]+): 215.99 Å²
- collision cross section (N2) ([1]; [M+Na]+): 220.12 Å²
- collision cross section (N2) ([1]; [M-H]-): 210.71 Å²

SMILES: CCCCCCCCCCCCCC(=O)OC[C@@H](O)COP(=O)([O-])OCC[NH3+] [LPE(14:0/0:0)]
- collision cross section (N2) ([1]; [M+H]+): 206.14 Å²
- collision cross section (N2) ([1]; [M+Na]+): 212.49 Å²
- collision cross section (N2) ([1]; [M-H]-): 199.2 Å²

SMILES: CCCCC1CC1CCCCCCCC(=O)OC[C@@H](O)COP(=O)([O-])OCC[NH3+] (stereo not given in full) [LPE(15:1/0:0)]
- collision cross section (N2) ([1]; [M-H]-): 200.28 Å²

SMILES: CCCCCCCC/C=C/CCCCCCCC(=O)OC[C@@H](O)COP(=O)([O-])OCC[NH3+] [LPE(18:1/0:0)]
- collision cross section (N2) ([1]; [M+H]+): 214.35 Å²
- collision cross section (N2) ([1]; [M+Na]+): 219.17 Å²
- collision cross section (N2) ([1]; [M-H]-): 211.1 Å²

SMILES: CCCCCCCCC1CC1CCCCCCCC(=O)OC[C@@H](O)COP(=O)([O-])OCC[NH3+] (stereo not given in full) [LPE(19:1/0:0)]
- collision cross section (N2) ([1]; [M+H]+): 219.65 Å²
- collision cross section (N2) ([1]; [M+Na]+): 225.77 Å²
- collision cross section (N2) ([1]; [M-H]-): 214.97 Å²

SMILES: CCCCCCCCCCCCCCC(=O)OC[C@@H](O)COP(=O)(O)OCC(O)CO (stereo not given in full) [LPG(15:0)]
- collision cross section (N2) ([1]; [M-H]-): 209.66 Å²

SMILES: CCCCCCCCCCCCCCCC(=O)O[C@H](CO)COP(=O)(O)OCC(O)CO (stereo not given in full) [LPG(16:0)]
- collision cross section (N2) ([1]; [M-H]-): 213.25 Å²

SMILES: CCCCCC/C=C/CCCCCCCC(=O)O[C@H](CO)COP(=O)(O)OCC(O)CO (stereo not given in full) [LPG(16:1)]
- collision cross section (N2) ([1]; [M-H]-): 209.98 Å²

SMILES: CCCCCCC1CC1CCCCCCCC(=O)O[C@H](CO)COP(=O)(O)OCC(O)CO (stereo not given in full) [LPG(17:1)]
- collision cross section (N2) ([1]; [M-H]-): 213.68 Å²

SMILES: CCCCCCCC/C=C/CCCCCCCC(=O)O[C@H](CO)COP(=O)(O)OCC(O)CO (stereo not given in full) [LPG(18:1)]
- collision cross section (N2) ([1]; [M-H]-): 217.26 Å²

SMILES: CCCCCCCCCCCCCCCC(=O)OCC(COP(=O)(O)O)OC(=O)CCCCCCCC1CC1CCCC (stereo not given) [PA(31:1)]
- collision cross section (N2) ([1]; [M-H]-): 245.76 Å²

SMILES: CCCCCC/C=C\CCCCCCCC(=O)OCC(COP(=O)(O)O)OC(=O)CCCCCCC/C=C\CCCCCC (stereo not given) [PA(32:2)]
- collision cross section (N2) ([1]; [M-H]-): 247.47 Å²

SMILES: CCCCCCCCCCCCCCCC(=O)OCC(COP(=O)(O)O)OC(=O)CCCCCCCC1CC1CCCCCC (stereo not given) [PA(33:1)]
- collision cross section (N2) ([1]; [M-H]-): 252.33 Å²

SMILES: CCCCCCCCCCCCCCCC(=O)OCC(COP(=O)(O)O)OC(=O)CCCCCCCC1CC1CCCCCCCC (stereo not given) [PA(35:1)]
- collision cross section (N2) ([1]; [M-H]-): 258.7 Å²

SMILES: CCCCCC/C=C\CCCCCCCC(=O)OCC(COP(=O)(O)O)OC(=O)CCCCCCCC1CC1CCCCCCCC (stereo not given) [PA(35:2)]
- collision cross section (N2) ([1]; [M-H]-): 256.82 Å²

SMILES: C=CCCCCCCCCCCCCC(=O)O[C@H](COC(=O)CCCCCCCCCCCCCCC)COP(=O)([O-])OCC[N+](C)(C)C [PC(31:1)]
- collision cross section (N2) ([2]; [M+K]+): 286.5 Å²
- collision cross section (N2) ([3]; [M+H]+): 276.07 Å²

SMILES: CCCCCC/C=C\CCCCCCCCCC(=O)OC[C@H](COP(=O)([O-])OCC[N+](C)(C)C)OC(=O)CCCCCCCCCCCCC [PC(32:1)]
- collision cross section (N2) [4]: 278 Å²
- collision cross section (N2) ([5]; [M+Na]+): 282.6 Å²
- collision cross section (N2) ([3]; [M+H]+): 279.13 Å²

SMILES: CCCCCC/C=C\CCCCCCCC(=O)OCC(COP(=O)(O)OCCN)OC(=O)CCCCCCCCCCCCCCC (stereo not given) [PE(32:1)]
- collision cross section (N2) ([1]; [M+H]+): 268.72 Å²
- collision cross section (N2) ([1]; [M-H]-): 256.09 Å²

SMILES: CCCCCC/C=C\CCCCCCCC(=O)OCC(COP(=O)(O)OCCN)OC(=O)CCCCCCCC1CC1CCCCCC (stereo not given) [PE(33:2)]
- collision cross section (N2) ([1]; [M+H]+): 268.71 Å²
- collision cross section (N2) ([1]; [M-H]-): 257.69 Å²

SMILES: CCCCCCCC/C=C\CCCCCCCC(=O)OC(COC(=O)CCCCCCCCCCCCCCC)COP(=O)(O)OCCN (stereo not given) [PE(34:1)]
- collision cross section (N2) ([1]; [M+H]+): 275.45 Å²
- collision cross section (N2) ([1]; [M-H]-): 263.99 Å²

SMILES: CCCCCCCCCCCCCCCC(=O)OCC(COP(=O)(O)OCCN)OC(=O)CCCCCCCC1CC1CCCCCCCC (stereo not given) [PE(35:1)]
- collision cross section (N2) ([1]; [M+H]+): 279.52 Å²
- collision cross section (N2) ([1]; [M-H]-): 267.54 Å²

SMILES: CCCCCCCCCCCCCCCC(=O)OCC(COP(=O)(O)OCC(O)CO)OC(=O)CCCCCCCC1CC1CCCC (stereo not given) [PG(31:1)]
- collision cross section (N2) ([1]; [M+Na]+): 273.08 Å²
- collision cross section (N2) ([1]; [M-H]-): 259.19 Å²

SMILES: CCCCCCCCCCCCC=CC[C@@H](O)[C@H](COP(=O)([O-])OCC[N+](C)(C)C)NC(=O)CCCCCCCCCCCCCCCC [SM(35:1)]
- collision cross section (N2) ([2]; [M+Na]+): 289.1 Å²
- collision cross section (N2) ([5]; [M+H]+): 285.1 Å²
- collision cross section (N2) ([5]; [M+Na]+): 285.6 Å²
- collision cross section (N2) ([3]; [M+H]+): 284.31 Å²

SMILES: CCCCCCCCCCCCC=CC[C@@H](O)[C@H](COP(=O)([O-])OCC[N+](C)(C)C)NC(=O)CCCCCCCCCCCCCCCCCCC [SM(38:1)]
- collision cross section (N2) ([2]; [M+Na]+): 298.5 Å²
- collision cross section (N2) ([5]; [M+HCOO]-): 292.1 Å²
- collision cross section (N2) ([3]; [M+H]+): 293.47 Å²

SMILES: CCCCCCCCCCCCC=CC[C@@H](O)[C@H](COP(=O)([O-])OCC[N+](C)(C)C)NC(=O)CCCCCCCCCCCCCCCCCCCCCC [SM(41:1)]
- collision cross section (N2) ([2]; [M+Na]+): 306.3 Å²
- collision cross section (N2) ([5]; [M+HCOO]-): 300.3 Å²
- collision cross section (N2) ([5]; [M+H]+): 302.9 Å²
- collision cross section (N2) ([5]; [M+Na]+): 302.8 Å²
- collision cross section (N2) ([3]; [M+H]+): 302.5 Å²

SMILES: CCCCCCCCCCCCC=CC[C@@H](O)[C@H](COP(=O)([O-])OCC[N+](C)(C)C)NC(=O)CCCCCCCCCCCCCCCCCCCCCCC [SM(42:1)]
- collision cross section (N2) ([2]; [M+Na]+): 309.3 Å²
- collision cross section (N2) ([5]; [M+HCOO]-): 303 Å²
- collision cross section (N2) ([3]; [M+H]+): 304.96 Å²

SMILES: CCCCCCCCCCCCC=CC[C@@H](O)[C@H](COP(=O)([O-])OCC[N+](C)(C)C)NC(=O)CC=CCCCCCCCCCCCCCCCCCCCC [SM(42:2)]
- collision cross section (N2) ([2]; [M+Na]+): 308.2 Å²
- collision cross section (N2) ([5]; [M+H]+): 304.2 Å²
- collision cross section (N2) ([5]; [M+Na]+): 304.4 Å²
- collision cross section (N2) ([3]; [M+H]+): 305.54 Å²

SMILES: CCCCC/C=C\C/C=C\C/C=C\CCCCCCCCC(=O)OC[C@@H](COC(=O)CCCCCCCCCCCCCCCCC)OC(=O)CCCCCCCCC/C=C\C/C=C\CCCCC [TG(60:5)]
- collision cross section (N2) ([5]; [M+NH4]+): 339.4 Å²
- collision cross section (N2) ([3]; [M+NH4]+): 344.42 Å²
